Columns and labels:
Assay type in all cases: cell-based
Settings in all cases: P < 0.05
Δtlp2,4 mutant = test system: Δtlp2,4 mutant
Δtlp2,3 mutant = test system: Δtlp2,3 mutant
Δtlp2,3,4 triple mutant = test system: Δtlp2,3,4 triple mutant

SMILES: NCCCC[C@H](N)C(=O)O [Lysine]
- cell migration toward ligand decreased, Δtlp2,4 mutant (Δtlp2,4 mutant): 1.1 log
- cell migration toward ligand increased, Δtlp2,3 mutant (Δtlp2,3 mutant): 1.8 log
- increase in cell migration, Δtlp2,3,4 triple mutant (Δtlp2,3,4 triple mutant): 1.5 log

Reference: article PMC9769880, “Diverse Sensory Repertoire of Paralogous Chemoreceptors Tlp2, Tlp3, and Tlp4 in Campylobacter jejuni” (Microbiology Spectrum, 2022)
